Literature values as cited in patent US20130004563A1, “MULTIP[…]-ADENOSYLMETHIONINE COMPOSITIONS AND RELATED METHODS” (priority 2011, published 2013).

Experiments:
[1] = not given; remark: listed apart in the source

For S-adenosyl-L-methionine [SAMe], the SAMe bioavailability (enteric-coated single unit tablets, compared with immediate release formulations) is given as “higher”, the half-life (in the body, single dose) is given as “approximately 6 hours” and the stability in vitro [1] is given as “relatively unstable”.
